Results reported in ChEMBL document CHEMBL1201862, “PubChem BioAssay data set” (2004).
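96-well plates; 48 h exposure; 5 concentrations. Endpoints by linear interpolation between flanking doses. Not reached: highest tested concentration assigned. The concentration for 50% growth inhibition is given as GI50.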 Calls of active or inactive are those of the source. Rule as the data show it: active = GI50 up to about 1.1 µM and inactive = higher.

How the values were obtained:
Assay in all cases: NCI anticancer screen, dose series, 48 h
CAKI-1 = system: CAKI-1
COLO 205 = system: COLO 205
HL-60 = system: HL-60
M14 = system: M14
MOLT-4 = system: MOLT-4
NCI-H23 = system: NCI-H23
OVCAR-5 = system: OVCAR-5
OVCAR-8 = system: OVCAR-8
SK-MEL-2 = system: SK-MEL-2
SNB-78 = system: SNB-78
U-251 = system: U-251
A498 = system: A498
SW-620 = system: SW-620
NCI-H226 = system: NCI-H226
NCI-H522 = system: NCI-H522
BT-549 = system: BT-549
DU-145 = system: DU-145
Hs-578T = system: Hs-578T
MCF7 = system: MCF7
NCI/ADR-RES = system: NCI/ADR-RES

Measured: GI50

OC[C@@H]1CC#C/C=C\C#CC[C@@H]1CO
inactive: CAKI-1 > 100 µM | COLO 205 > 100 µM | HL-60 > 100 µM | M14 > 100 µM | MOLT-4 > 100 µM | NCI-H23 > 100 µM | OVCAR-5 > 100 µM | OVCAR-8 > 100 µM | SK-MEL-2 > 100 µM | SNB-78 > 100 µM | U-251 > 100 µM

CCOc1c(Cc2ccccc2)c(=O)n2c3ccccc3n3c(=O)n(C)c(=O)c1c23
inactive: A498 > 100 µM | CAKI-1 > 100 µM | COLO 205 > 100 µM | M14 > 100 µM | MOLT-4 > 100 µM | NCI-H23 > 100 µM | OVCAR-5 > 100 µM | OVCAR-8 > 100 µM | SK-MEL-2 > 100 µM | SNB-78 > 100 µM | SW-620 > 100 µM | U-251 > 100 µM

Cn1c(=O)c2nc(-c3ccc(Cl)cc3)oc2n(C)c1=O
inactive: A498 > 100 µM | CAKI-1 > 100 µM | HL-60 > 100 µM | M14 > 100 µM | MOLT-4 > 100 µM | NCI-H226 > 100 µM | NCI-H23 > 100 µM | NCI-H522 > 100 µM | OVCAR-5 > 100 µM | OVCAR-8 > 100 µM | SK-MEL-2 > 100 µM | SNB-78 > 100 µM | SW-620 > 100 µM | U-251 > 100 µM

Cc1ccc(Oc2ccccc2N)cc1
inactive: A498 > 100 µM | COLO 205 6.07 µM | HL-60 10.4 µM | M14 33.5 µM | MOLT-4 15.4 µM | NCI-H23 39.9 µM | OVCAR-5 40.6 µM | OVCAR-8 79.3 µM | SK-MEL-2 51.5 µM | SNB-78 29 µM | SW-620 45.9 µM | U-251 4.43 µM

CCCCCCCCCOC(=S)NCCCCC
inactive: A498 24.3 µM | CAKI-1 27.8 µM | HL-60 16.6 µM | M14 28.6 µM | MOLT-4 19 µM | NCI-H23 26.7 µM | NCI-H522 20.3 µM | OVCAR-8 38.7 µM | SNB-78 40.6 µM | SW-620 32.7 µM | U-251 21.7 µM

CCOC(=O)/C(=C/c1ccc(OC)c(OC)c1)C(=O)c1ccccc1
inactive: A498 22.3 µM | CAKI-1 14.7 µM | COLO 205 16.9 µM | M14 13.9 µM | MOLT-4 17.5 µM | NCI-H23 17.7 µM | NCI-H522 13.9 µM | OVCAR-5 17.5 µM | OVCAR-8 22.3 µM | SK-MEL-2 38.5 µM | SNB-78 17.1 µM | SW-620 19.4 µM | U-251 19.5 µM

C=CCNC(=S)N1c2ccccc2NC(=O)CC1C (stereo not drawn)
inactive: COLO 205 > 100 µM | HL-60 > 100 µM | M14 > 100 µM | MOLT-4 > 100 µM | NCI-H226 > 100 µM | NCI-H23 > 100 µM | NCI-H522 > 100 µM | OVCAR-5 > 100 µM | OVCAR-8 > 100 µM | SK-MEL-2 > 100 µM | SNB-78 > 100 µM | SW-620 > 100 µM | U-251 > 100 µM

CC1C(=O)N(C)C2(CO)C(=O)O[C@H](C)C12O (stereo partly drawn)
inactive: CAKI-1 > 100 µM | COLO 205 > 100 µM | M14 > 100 µM | MOLT-4 > 100 µM | NCI-H23 > 100 µM | OVCAR-5 > 100 µM | OVCAR-8 > 100 µM | SK-MEL-2 > 100 µM | SNB-78 > 100 µM | U-251 > 100 µM

C/N=C(\SC)N(C)c1nc(=[N+](C)C)ss1.[O-][Cl+3]([O-])([O-])[O-]
inactive: A498 4.61 µM | CAKI-1 52 µM | HL-60 7.38 µM | M14 > 100 µM | MOLT-4 9.53 µM | NCI-H226 > 100 µM | NCI-H23 > 100 µM | NCI-H522 13.2 µM | OVCAR-5 > 100 µM | OVCAR-8 > 100 µM | SK-MEL-2 > 100 µM | SNB-78 > 100 µM | SW-620 31.6 µM | U-251 > 100 µM

Cc1ccc(S(=O)OC2c3ccccc3Cc3ccccc32)cc1 (stereo not drawn)
inactive: A498 21.9 µM | CAKI-1 17.3 µM | COLO 205 17.5 µM | HL-60 17.6 µM | M14 18.6 µM | MOLT-4 19.2 µM | NCI-H226 18.5 µM | NCI-H23 18.6 µM | NCI-H522 13.9 µM | OVCAR-5 15.6 µM | OVCAR-8 15.6 µM | SNB-78 19.9 µM | SW-620 22.5 µM | U-251 27.6 µM

Cc1[nH]c2ccccc2c1CC/C(=N\Nc1ccccc1)c1ccccc1
inactive: A498 > 100 µM | CAKI-1 > 100 µM | HL-60 > 100 µM | M14 > 100 µM | MOLT-4 > 100 µM | NCI-H226 > 100 µM | NCI-H23 > 100 µM | OVCAR-5 > 100 µM | OVCAR-8 > 100 µM | SK-MEL-2 > 100 µM | SNB-78 > 100 µM | SW-620 > 100 µM | U-251 > 100 µM

CCSc1nc(C)nc2c1sc1nc3ccccc3n12
inactive: A498 > 100 µM | BT-549 > 100 µM | CAKI-1 > 100 µM | COLO 205 > 100 µM | DU-145 > 100 µM | HL-60 > 28.1 µM | Hs-578T 24.2 µM | M14 > 100 µM | MCF7 > 100 µM | MOLT-4 > 100 µM | NCI-H226 > 100 µM | NCI-H23 > 100 µM | NCI-H522 > 100 µM | NCI/ADR-RES > 100 µM | OVCAR-5 > 100 µM | OVCAR-8 > 100 µM | SK-MEL-2 > 100 µM | SW-620 > 100 µM | U-251 > 100 µM

Nn1c(Sc2nc3ccccc3c(=O)n2N)nc2ccccc2c1=O
inactive: A498 16 µM | BT-549 1.77 µM | CAKI-1 6.37 µM | COLO 205 13.8 µM | DU-145 20.2 µM | HL-60 2.51 µM | Hs-578T 17.1 µM | M14 1.8 µM | MCF7 4.1 µM | MOLT-4 1.63 µM | NCI-H226 1.71 µM | NCI-H23 1.91 µM | NCI-H522 1.69 µM | NCI/ADR-RES 7.76 µM | OVCAR-5 16.5 µM | OVCAR-8 2.77 µM | SK-MEL-2 3.24 µM | SW-620 2.29 µM | U-251 7.03 µM

Cc1c(Cl)cccc1NC(=O)CC1C(=O)Nc2ccccc2S1(=O)=O (stereo not drawn)
inactive: A498 15.3 µM | CAKI-1 19.9 µM | HL-60 2.72 µM | M14 14.2 µM | MOLT-4 7.83 µM | NCI-H226 16.9 µM | NCI-H23 18.1 µM | OVCAR-5 20.6 µM | OVCAR-8 18.4 µM | SK-MEL-2 19.4 µM | SNB-78 20.2 µM | SW-620 20 µM | U-251 13.1 µM

O=c1oc2c3ccc4ccccc4c3n(CCN3CCCCC3)c2c2ccccc12
inactive: CAKI-1 48.2 µM | COLO 205 14.8 µM | HL-60 89.5 µM | M14 20 µM | MOLT-4 2.46 µM | NCI-H23 21.4 µM | NCI-H522 17.9 µM | OVCAR-5 > 100 µM | OVCAR-8 19 µM | SK-MEL-2 26.5 µM | SNB-78 20.9 µM | SW-620 18.8 µM | U-251 17.7 µM

O=c1cccccc1NCCCCCCCNc1cccccc1=O
inactive: CAKI-1 45.6 µM | COLO 205 40.1 µM | HL-60 11.1 µM | M14 23 µM | MOLT-4 17 µM | NCI-H226 34.5 µM | NCI-H23 19.7 µM | NCI-H522 13.8 µM | OVCAR-5 77.1 µM | OVCAR-8 31.6 µM | SK-MEL-2 49 µM | SNB-78 47.8 µM | SW-620 52 µM | U-251 > 10 µM

Cc1ccc(CCCCCOc2ccc(C3=NCCO3)cc2)s1
inactive: A498 1.81 µM | BT-549 > 100 µM | CAKI-1 > 100 µM | COLO 205 > 100 µM | DU-145 > 100 µM | HL-60 > 100 µM | Hs-578T > 100 µM | M14 > 100 µM | MCF7 > 100 µM | MOLT-4 > 100 µM | NCI-H226 > 100 µM | NCI-H23 > 100 µM | NCI-H522 > 100 µM | NCI/ADR-RES > 100 µM | OVCAR-5 > 100 µM | OVCAR-8 > 100 µM | SK-MEL-2 > 100 µM | SW-620 > 100 µM | U-251 > 100 µM

COc1cc2c(cc1OC)C(Cc1ccccc1CCCl)=NCC2
inactive: A498 > 100 µM | BT-549 40.3 µM | CAKI-1 76.6 µM | COLO 205 26.6 µM | DU-145 > 100 µM | HL-60 19.8 µM | Hs-578T 73.5 µM | M14 38.1 µM | MCF7 49.4 µM | MOLT-4 38.6 µM | NCI-H226 31.3 µM | NCI-H23 22 µM | NCI-H522 15.9 µM | NCI/ADR-RES 25.8 µM | OVCAR-5 > 100 µM | OVCAR-8 47.2 µM | SK-MEL-2 > 100 µM | SW-620 42 µM | U-251 53.2 µM

C#CC[C@]12CC(=O)CC[C@H]1CC(=O)C2
inactive: A498 > 100 µM | CAKI-1 > 100 µM | COLO 205 > 100 µM | HL-60 > 100 µM | M14 > 100 µM | MOLT-4 > 100 µM | NCI-H226 > 100 µM | NCI-H522 > 100 µM | OVCAR-8 > 100 µM | SK-MEL-2 > 100 µM | SNB-78 > 100 µM | SW-620 > 100 µM | U-251 > 100 µM

COc1ccc(/C=C2\CCC(CCN3CCOCC3)C2=O)cc1 (stereo not drawn)
inactive: A498 > 100 µM | CAKI-1 > 100 µM | HL-60 > 100 µM | M14 > 100 µM | MOLT-4 > 100 µM | NCI-H226 > 100 µM | NCI-H23 > 100 µM | OVCAR-5 > 100 µM | OVCAR-8 > 100 µM | SK-MEL-2 > 100 µM | SNB-78 > 100 µM | SW-620 > 100 µM
